In brackets after ≈: the same amount, converted by molar mass.
The compounds below were run on Enterococcus faecium (VRE) NCTC 12952 (assay: MIC agar dilution, VRE strain 30). Settings: 22 hrs.
Type: cell-based
Experimental: (§1) Molar equivalent concentrations were used to allow comparison between compounds of differing molecular mass. Due to weighing difficulties, any compound in solid form was melted in a water bath prior to dilution. To make ten-times strength concentrations, which takes into account agar dilution, 0.0352 mmol of each compound was weighed into plastic universal bottles and 4 mL of sterile distilled water (SDW) was added. To produce a homogenous emulsion the universals were vortexed; once achieved the emulsions were serial diluted by adding 2 mL to 2 mL of SDW.
(§2) For every 100 mL of Isosensitest agar (IST) (CM0471; Oxoid, Basingstoke, England), 3.1 g of the IST powder was added to 100 mL SDW (as per manufacturer's instructions) and sterilised for 15 minutes at 121° C. Once sterilised, the molten agar was cooled to 50° C. in a water-bath. Subsequently 4.8 g of CCEY powder (BC2160; Bioconnections, Wetherby, England), also known as Brazier's medium, was added to 100 mL SDW for every 100 mL of agar needed. This was then sterilised for 15 minutes at 121° C. Once sterilised the molten agar was cooled to 50° C. in a water-bath and 4 mL of egg-yolk emulsion (S2073; TCS Biosciences Ltd, Buckingham, United Kingdom) and 1 mL of lysed defibrinated horse blood (HB035; TCS Biosciences Ltd, Buckingham, United Kingdom) were also added for every 100 mL needed. Horse blood lysis is achieved by dilution to half concentration with SDW; when fully lysed the mixture will turn dark red in colour.
(§3) 18 mL agar was added to each universal and then poured into sterile Petri dishes. This step creates a 1/10 dilution resulting in agar plates of the required strength. Control plates for each set of strains were created by adding 18 mL of agar to 2 mL of SDW.
(§4) Suspensions of each bacterial species were prepared with a density equal to that of a 0.5 McFarland standard using a densitometer. All suspensions were made using sterile distilled water and fresh 18-20 hour cultures. As a 0.5 McFarland standard contains 1.5×10^8 CFU/mL and the multipoint inoculators applies 1 μL spots of liquid, each bacterial suspension was diluted 1/15 (20 μL suspension to 280 μL sterile distilled water).
(§5) Bacterial suspensions were prepared from fresh 18-24 hour cultures as previously described. 1 μL of each strain was inoculated onto all 100 agar plates containing a different chemical concentration and the 2 control plates. This was done using a multipoint inoculator which inoculates 20 strains per plate. All plates were incubated for 22 hours at 37° C. in aerobic conditions.
(§6) Each plate was examined for bacterial growth after 22 and 48 hours, with each being incubated in between examinations. A positive result was recorded as growth of ≧10 colonies. A negative result was recorded as growth of <10 colonies as this is equivalent to 99.9% inhibition. The lowest concentration of chemical that inhibited growth was recorded as the MIC. The results are recorded in Table IV below, where the numbers are quoted in mmol/L.
(§7) Given the positive performance of the ethoxylates of lauryl alcohol in reducing the MIC for a number of the micro-organisms tested, further MIC testing of Laureth-1 [C12E1] through to Laureth-8 [C12E8] was conducted on each of the following: • 10 strains of vancomycin-resistant enterococci (VRE)—listed in Table V below; and • 20 strains of methicillin-resistant Staphylococcus aureus (MRSA)—listed in Table VI.
(§8) The alkanol, alkanol derivatives, agar plates, and inocula were all prepared in the same way as described above.
(§9) The plates were examined in the same manner as described above and the results are recorded in Table VII below, where the numbers are quoted in mmol/L.

CCCCCCCCCCCCOCCOCCOCCO [L3, Triethylene Glycol Monododecyl Ether] was tested. Which MIC did it give?
The MIC was 220 µM (≈ 70.1 µg/mL).

Same assay, conditions: 48 hrs

With CCCCCCCCCCCCOCCOCCOCCO [L3, Triethylene Glycol Monododecyl Ether] as the compound, how does the MIC read?
The MIC was 220 µM (≈ 70.1 µg/mL).

The compounds below were run on MRSA FRA 920 (assay: MIC agar dilution, MRSA strain 38). Settings: Staphylococcus aureus, 22 hrs.
Type: cell-based
Experimental: as §1, §2, §3, §4, §5, §6, §7, §8, §9

For CCCCCCCCCCCCOCCOCCOCCO [L3, Triethylene Glycol Monododecyl Ether], which MIC is on record?
The MIC was 55 µM (≈ 17.5 µg/mL).

Same assay, conditions: Staphylococcus aureus, 48 hrs

How did the MIC turn out when CCCCCCCCCCCCOCCOCCOCCO [L3, Triethylene Glycol Monododecyl Ether] was run?
Its MIC is 55 µM (≈ 17.5 µg/mL).

What follows are compounds tested on Candida glabrata (assay: MIC agar dilution, micro-organism 20 (3943)). Settings: Nakaseomyces glabratus, 22 h, Candida glabrata 3943; 22 hrs; read-out: MIC.
Type: cell-based
Procedure, shortened: (§10)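 Agar dilution in Isosensitest/CCEY agar with egg yolk and lysed horse blood; compounds as aqueous emulsions (myristyl and lauryl alcohol with 1-methyl-2-pyrrolidone and Tween 20). 1 µL spots of 1/15-diluted 0.5 McFarland suspensions, 37 °C aerobic, read at 22 and 48 h; MIC (mmol/L) is lowest concentration giving <10 colonies.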

With CCCCCCCCCCCCOCCOCCOCCO [L3, Triethylene Glycol Monododecyl Ether] as the compound, how does the MIC read?
Its MIC is 110 µM (≈ 35 µg/mL).

Same assay, conditions: Nakaseomyces glabratus, 48 h, Candida glabrata 3943; 48 hrs; read-out: MIC

Which MIC does the source give for CCCCCCCCCCCCOCCOCCOCCO [L3, Triethylene Glycol Monododecyl Ether] here?
The MIC was 110 µM (≈ 35 µg/mL).

These compounds were tested on Staphylococcus epidermidis (assay: MIC agar dilution, micro-organism 14 (11047)). Settings: Staphylococcus epidermidis 11047; 22 hrs; read-out: MIC.
Type: cell-based
Procedure, shortened: as §10

With CCCCCCCCCCCCOCCOCCOCCO [L3, Triethylene Glycol Monododecyl Ether] as the compound, how does the MIC read?
The MIC was at most 50 µM.

Same assay, conditions: Staphylococcus epidermidis 11047; 48 hrs; read-out: MIC

With CCCCCCCCCCCCOCCOCCOCCO [L3, Triethylene Glycol Monododecyl Ether] as the compound, how does the MIC read?
Its MIC is at most 50 µM.

The compounds below were run on MRSA EMRSA 16 03732/95 (assay: MIC agar dilution, MRSA strain 45). Settings: Staphylococcus aureus, 22 hrs.
Type: cell-based
Experimental: as §1, §2, §3, §4, §5, §6, §7, §8, §9

Which MIC does the source give for CCCCCCCCCCCCOCCOCCOCCO [L3, Triethylene Glycol Monododecyl Ether] here?
The MIC was 110 µM (≈ 35 µg/mL).

Same assay, conditions: Staphylococcus aureus, 48 hrs

CCCCCCCCCCCCOCCOCCOCCO [L3, Triethylene Glycol Monododecyl Ether] was tested. Which MIC did it give?
The MIC was 110 µM (≈ 35 µg/mL).

Each compound was assayed on MRSA EMRSA 16 21354/95 (assay: MIC agar dilution, MRSA strain 44). Settings: Staphylococcus aureus, 22 hrs.
Type: cell-based
Experimental: as §1, §2, §3, §4, §5, §6, §7, §8, §9

Which MIC does the source give for CCCCCCCCCCCCOCCOCCOCCO [L3, Triethylene Glycol Monododecyl Ether] here?
The MIC was 110 µM (≈ 35 µg/mL).

Same assay, conditions: Staphylococcus aureus, 48 hrs

For CCCCCCCCCCCCOCCOCCOCCO [L3, Triethylene Glycol Monododecyl Ether], which MIC is on record?
Its MIC is 110 µM (≈ 35 µg/mL).

These compounds were tested on Enterococcus faecalis (VRE) MB 726 (assay: MIC agar dilution, VRE strain 28). Settings: 22 hrs.
Type: cell-based
Experimental: as §1, §2, §3, §4, §5, §6, §7, §8, §9

CCCCCCCCCCCCOCCOCCOCCO [L3, Triethylene Glycol Monododecyl Ether] was tested. Which MIC did it give?
The MIC was 220 µM (≈ 70.1 µg/mL).

Same assay, conditions: 48 hrs

For CCCCCCCCCCCCOCCOCCOCCO [L3, Triethylene Glycol Monododecyl Ether], which MIC is on record?
Its MIC is 220 µM (≈ 70.1 µg/mL).

The compounds below were run on Steptococcus pyogenes (assay: MIC agar dilution, micro-organism 11 (8306)). Settings: 22 h, Steptococcus pyogenes 8306; 22 hrs; read-out: MIC.
Type: cell-based
Procedure, shortened: as §10

Which MIC does the source give for CCCCCCCCCCCCOCCOCCOCCO [L3, Triethylene Glycol Monododecyl Ether] here?
The MIC was at most 50 µM.

Same assay, conditions: 48 h, Steptococcus pyogenes 8306; 48 hrs; read-out: MIC

How did the MIC turn out when CCCCCCCCCCCCOCCOCCOCCO [L3, Triethylene Glycol Monododecyl Ether] was run?
Its MIC is at most 50 µM.

What follows are compounds tested on Listeria monocytogenes (assay: MIC agar dilution, micro-organism 15 (11994)). Settings: Listeria monocytogenes 11994; 22 hrs; read-out: MIC.
Type: cell-based
Procedure, shortened: as §10

Which MIC does the source give for CCCCCCCCCCCCOCCOCCOCCO [L3, Triethylene Glycol Monododecyl Ether] here?
Its MIC is 110 µM (≈ 35 µg/mL).

Same assay, conditions: Listeria monocytogenes 11994; 48 hrs; read-out: MIC

Which MIC does the source give for CCCCCCCCCCCCOCCOCCOCCO [L3, Triethylene Glycol Monododecyl Ether] here?
The MIC was 220 µM (≈ 70.1 µg/mL).

Each compound was assayed on Enterococcus faecium (VRE) MB 3137 (assay: MIC agar dilution, VRE strain 26). Settings: 22 hrs.
Type: cell-based
Experimental: as §1, §2, §3, §4, §5, §6, §7, §8, §9

Which MIC does the source give for CCCCCCCCCCCCOCCOCCOCCO [L3, Triethylene Glycol Monododecyl Ether] here?
Its MIC is 880 µM (≈ 280 µg/mL).

Same assay, conditions: 48 hrs

How did the MIC turn out when CCCCCCCCCCCCOCCOCCOCCO [L3, Triethylene Glycol Monododecyl Ether] was run?
The MIC was over 880 µM.

Each compound was assayed on Enterococcus casseliflavus (VRE) Clin waste (assay: MIC agar dilution, VRE strain 23). Settings: 22 hrs.
Type: cell-based
Experimental: as §1, §2, §3, §4, §5, §6, §7, §8, §9

With CCCCCCCCCCCCOCCOCCOCCO [L3, Triethylene Glycol Monododecyl Ether] as the compound, how does the MIC read?
The MIC was 220 µM (≈ 70.1 µg/mL).

Same assay, conditions: 48 hrs

With CCCCCCCCCCCCOCCOCCOCCO [L3, Triethylene Glycol Monododecyl Ether] as the compound, how does the MIC read?
Its MIC is 220 µM (≈ 70.1 µg/mL).

Each compound was assayed on MRSA EMRSA 15 19972/98 (assay: MIC agar dilution, MRSA strain 39). Settings: Staphylococcus aureus, 22 hrs.
Type: cell-based
Experimental: as §1, §2, §3, §4, §5, §6, §7, §8, §9

With CCCCCCCCCCCCOCCOCCOCCO [L3, Triethylene Glycol Monododecyl Ether] as the compound, how does the MIC read?
The MIC was 110 µM (≈ 35 µg/mL).

Same assay, conditions: Staphylococcus aureus, 48 hrs

How did the MIC turn out when CCCCCCCCCCCCOCCOCCOCCO [L3, Triethylene Glycol Monododecyl Ether] was run?
Its MIC is 110 µM (≈ 35 µg/mL).

Each compound was assayed on Enterococcus faecalis (VRE) PHLS URINE 2000 (assay: MIC agar dilution, VRE strain 21). Settings: 22 hrs.
Type: cell-based
Experimental: as §1, §2, §3, §4, §5, §6, §7, §8, §9

For CCCCCCCCCCCCOCCOCCOCCO [L3, Triethylene Glycol Monododecyl Ether], which MIC is on record?
The MIC was 220 µM (≈ 70.1 µg/mL).

Same assay, conditions: 48 hrs

CCCCCCCCCCCCOCCOCCOCCO [L3, Triethylene Glycol Monododecyl Ether] was tested. Which MIC did it give?
Its MIC is 220 µM (≈ 70.1 µg/mL).

From US20130165368A1, “ANTIMICROBIAL COMPOUNDS” (priority 2010, published 2013)
